Results taken from patent US5969098A, “Yeast-toxin-related protein for antimicrobial vaccine and sterilizing preservative use” (CyberChemics, Inc., priority 1997, dated 1999).
Where no end group is shown, it is not given here.

The sequences below were run on human red blood cells (assay: hemolysis of human red blood cells in whole blood (extracellular hemoglobin, spectrophotometric)). Conditions: human red blood cells exposed in whole blood, peptide concentration 63 ug/mL.
Type: cell-based
Excerpt: Table III lists the approximate pharmacokinetics of synthetic peptides described in the present invention which solubilize readily, persist in conformationally active secondary structures in vivo, and induce lysis of representative bacteria, yeast and fungi. These determinations derive from optical density readings (O.D.) and rely on spectrophotometric absorbance from known initial concentrations as reference standards. It is worth noting that although the peptide antimicrobials show 30+% homology with the yeast killer toxin beta subunit fragment, they have very favorable safety profiles on mammalian cells. For example, when human red blood cells are exposed in whole blood to SEQ. […] Perhaps, as significant, the safety profile derives from very specific amino acid substitutions, since substitution for less than 20% of the amino acids in SEQ. 1 renders SEQ. 2 hemolytic to 20% at 63 ug/mL and 35% substitution in SEQ. 1 renders SEQ. 3 hemolytic to 100%. Therefore, sequence identity and variation translate directly to the functional balance between microbial inhibition and mammalian safety. The optimal therapeutic index for dosage and effective antimicrobial inhibition of a particular polypeptide or salt thereof follow routinely without elaborate laboratory determinations by those skilled in the art of pharmacokinetics and metabolic pathways using, for instance, various cytochrome and liver enzymes in vivo.
For LLLLKKLLKLMNLLKKLGHY [SEQ. 3], the hemolysis was 100%.
For LLLLKLLLKKNPKLKKLIGV [SEQ. 2], the hemolysis was 20%.
With LVLLKKLMKKYKKLKKLGGL [SEQ. 1] the hemolysis was “no hemolysis is detectable”.
